Results taken from patent US7880007B2, “Bicyclic substituted phenyl piperidine modulators of muscarinic receptors” (Vertex Pharmaceuticals Incorporated, priority 2004, dated 2011).

Columns and labels:
Type in all cases: cell-based
[1] = molecular target: T1, M1 muscarinic receptor (Homo sapiens, UniProt P11229); test: Functional mobilization of intracellular calcium (FLIPR), M1-CHO cells; conditions: for M1 Activity: M1-CHO cells, calcium mobilization (FLIPR)
T1 construct: expressed in transfected cells; host or cells: CHO (M1-CHO)
T1 sequence (P11229 1-460): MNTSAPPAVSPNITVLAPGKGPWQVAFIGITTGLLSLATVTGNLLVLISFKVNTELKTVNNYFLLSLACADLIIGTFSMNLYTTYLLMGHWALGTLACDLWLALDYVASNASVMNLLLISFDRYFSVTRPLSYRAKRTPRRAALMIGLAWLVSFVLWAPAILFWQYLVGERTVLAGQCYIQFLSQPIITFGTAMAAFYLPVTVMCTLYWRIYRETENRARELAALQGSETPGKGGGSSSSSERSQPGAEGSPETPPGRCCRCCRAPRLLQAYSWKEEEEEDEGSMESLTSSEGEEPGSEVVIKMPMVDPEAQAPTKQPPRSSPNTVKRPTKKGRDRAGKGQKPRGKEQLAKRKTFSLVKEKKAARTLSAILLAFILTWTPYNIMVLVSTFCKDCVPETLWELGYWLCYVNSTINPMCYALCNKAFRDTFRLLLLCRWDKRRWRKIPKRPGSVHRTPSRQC
Procedure: (§1) Functional Mobilization of Intracellular Calcium to Determine Muscarinic Receptor Activity:
(§2) CHO cells expressing muscarinic receptors (M1 to M5) are grown as monolayers in tissue culture flasks at 37° C. in a humidified atmosphere containing 5% CO2 and passaged every 3-5 days. The growth media is Dulbecco's modified eagles medium (DMEM, Gibco Cat #12430-054), containing 25 mM Hepes and supplemented with Fetal Bovine Serum (Hyclone, cat #SH30071.03), 0.1 mM of MEM non-essential amino acids (GIBCO, Cat #11140-050), 1 mM MEM Sodium Pyruvate (GIBCO Cat #11360-070) and 100 units/ml of Penicillin G and 100 μg/ml of Streptomycin (GIBCO Cat #15140-122). The recombinant muscarinic receptor cell lines are grown under antibiotic pressure with media containing 25 μg/ml zeocin and 500 μg/ml G418 (M1-CHO), 4 μg/ml puromycin, 50 μg/ml zeocin and 2.5 μg/ml blasticidin (M2 and M4-CHO) or 50 μg/ml zeocin and 4 μg/ml puromycin (M3 and M5-CHO).
(§3) Cells are harvested at 80-90% confluence using Versene (GIBCO Cat #15040-066), collected by centrifugation and seeded 18-24 hrs prior to running the calcium assay at a density of 5,000-10,000 cells/well in […], clear-bottomed 384-well plates (BD Biocoat, poly-D-lysine, Cat #356663). The day of the experiment, the cells are washed with a plate washer (Bioteck Instruments, ELX 405) using bath 1 buffer (140-mM NaCl, 4.5-mM KCl, 2-mM CaCl2, 1-mM MgCl2, 10-mM Hepes-Na, 10-mM Glucose, pH 7.4, with NaOH) containing 1 mM Probenecid. Next, the calcium dye Fluo-3 (25 μl/well of Fluo-3 AM at 4 μM, Molecular Probes F-1241, in Bath 1 buffer containing 1 mM Probenecid) is added to the 25 μl of Bath 1 remaining in each well after the plate wash and the dye is loaded at 37° C. in the tissue culture incubator for 60-90 min. The fluorescent dye is removed using the plate washer with Bath 1 containing 1 mM Probenecid, leaving 25 μl/well of this solution after the wash. Alternatively, cells can be loaded with the calcium indicator from Molecular Devices (Calcium 3 Assay Reagents, Cat #R7181) adding 5 μl of a 5× solution dye in Bath 1 containing 1 mM Probenecid (10 ml per dye flask cat #R7182 to generate a solution 20×) to 20 μl of the same buffer. After loading for 60 min, the experiment can be run without having to remove the dye.
(§4) Compounds are prepared at a 2× fold concentration in a 96-well plate (round bottom, Costar Corning cat #3656), by reconstituting the pre-spotted compounds in bath 1 containing 1 mM probenecid. The final concentration DMSO is 0.5%, and the amount of DMSO is normalized across the assay plate. To determine an agonist action of the compounds on muscarinic receptors, the reconstituted compounds are added (25 μl compound/well) to the cell assay plate (containing 25 μl/well) using the multi-channel robotic system of the FLIPR 3 Instrument (Molecular Devices, Sunnyvale, Calif.). To determine a functional inhibitory action of the compounds on muscarinic receptors, the reconstituted compounds are added (25 μl compound/well) to the assay plate and pre-incubated for 15 min prior to adding 25 μl of Carbachol at 3× the EC80 for each muscarinic subtype. Alternatively, the compounds can be co-applied simultaneously with the agonist. In both assay modes, the fluorescence is recorded for 60 sec (excitation wavelength is […] and emission wavelength 540 nm) using the FLIPR 3 instrument.
(§5) The potency, efficacy and selectivity of the muscarinic compounds were evaluated by screening the compound activity across the whole family (M1 to M5 cells). Compounds were also screened for activity on other proteins such as other GPCRs and ion channels to determine selectivity on M4 receptors.
(§6) Examples of activities and efficacies of the muscarinic compounds of formulae (I, Ia, Ib, and II) on modulating M1, M2, M3 and M4 receptors are shown below in Table 3. […]

[2] = molecular target: T2, M2 muscarinic receptor (Homo sapiens, UniProt P08172); test: Functional mobilization of intracellular calcium (FLIPR), M2-CHO cells; conditions: for M2 Activity: M2-CHO cells, calcium mobilization (FLIPR)
T2 construct: expressed in transfected cells; host or cells: CHO (M2-CHO)
T2 sequence (P08172 1-466): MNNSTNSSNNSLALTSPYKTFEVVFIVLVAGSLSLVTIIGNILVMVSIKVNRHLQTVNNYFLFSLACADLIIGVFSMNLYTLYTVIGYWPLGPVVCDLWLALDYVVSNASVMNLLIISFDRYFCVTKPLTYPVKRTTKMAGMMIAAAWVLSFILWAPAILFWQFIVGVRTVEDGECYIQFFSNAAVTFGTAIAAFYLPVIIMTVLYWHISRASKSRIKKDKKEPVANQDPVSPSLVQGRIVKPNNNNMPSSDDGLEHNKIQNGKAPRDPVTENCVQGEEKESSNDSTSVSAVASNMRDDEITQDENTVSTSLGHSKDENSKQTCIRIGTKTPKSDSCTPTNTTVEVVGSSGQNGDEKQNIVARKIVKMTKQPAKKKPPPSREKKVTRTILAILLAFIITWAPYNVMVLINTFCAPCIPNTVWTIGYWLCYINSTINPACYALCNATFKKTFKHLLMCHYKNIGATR
Procedure: as §1, §2, §3, §4, §5, §6

[3] = molecular target: T3, M4 muscarinic receptor (Homo sapiens, UniProt P08173); test: Functional mobilization of intracellular calcium (FLIPR), M4-CHO cells; conditions: for M4 Activity: M4-CHO cells, calcium mobilization (FLIPR)
T3 construct: expressed in transfected cells; host or cells: CHO (M4-CHO)
T3 sequence (P08173 1-479): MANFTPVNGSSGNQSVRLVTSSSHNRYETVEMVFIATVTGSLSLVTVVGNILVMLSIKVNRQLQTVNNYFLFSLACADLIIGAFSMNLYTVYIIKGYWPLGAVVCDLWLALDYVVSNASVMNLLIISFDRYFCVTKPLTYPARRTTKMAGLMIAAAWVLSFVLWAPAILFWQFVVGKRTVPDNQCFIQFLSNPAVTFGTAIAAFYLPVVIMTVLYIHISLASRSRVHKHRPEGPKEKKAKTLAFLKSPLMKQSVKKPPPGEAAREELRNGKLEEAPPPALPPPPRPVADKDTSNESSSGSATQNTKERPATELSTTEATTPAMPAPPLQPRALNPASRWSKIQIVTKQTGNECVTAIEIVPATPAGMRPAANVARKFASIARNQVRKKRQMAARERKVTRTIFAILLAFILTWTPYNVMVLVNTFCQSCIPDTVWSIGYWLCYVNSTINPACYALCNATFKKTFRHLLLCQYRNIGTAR
Procedure: as §1, §2, §3, §4, §5, §6

[4] = 100% efficacy = maximum response obtained with the Carbachol control
[5] = 100% efficacy is the maximum response obtained with the Carbachol control

Row | SMILES | Emax [1, 4] | M1 Activity [1] | Emax [2, 4] | M2 Activity [2] | Emax [3, 4] | M4 Activity [3] | Emax [1, 5] | Emax [2, 5] | Emax [3, 5]
1 | COc1ccccc1C1CCN(CC2CCC3CCC2C3)CC1 (stereo not drawn) [Compound 61] | < 25% | + (activity was measured to be greater than 5.0 μM) | < 25% | + (activity was measured to be greater than 5.0 μM) | 25 to 100% | ++ (activity was measured to be from 1.0 μM to 5.0 μM) | – | – | –
2 | COc1ccccc1C1(C#N)CCN(C2CCOCC2)CC1 [Compound 379] | – | + (activity was measured to be greater than 5.0 μM) | – | + (activity was measured to be greater than 5.0 μM) | – | + (activity was measured to be greater than 5.0 μM) | < 25% | < 25% | < 25%
3 | CCCC1CCC(N2CCC(C#N)(c3ccccc3OC)CC2)CC1 (stereo not drawn) [Compound 335] | 25 to 100% | ++ (activity was measured to be from 1.0 μM to 5.0 μM) | < 25% | + (activity was measured to be greater than 5.0 μM) | 25 to 100% | ++ (activity was measured to be from 1.0 μM to 5.0 μM) | – | – | –
4 | CCOC(=O)N1[C@@H]2CC[C@@H]1CC(N1CCC(c3cc(F)ccc3C)CC1)C2 (stereo partly drawn) [Compound 145] | 25 to 100% | +++ (activity was measured to be less than 1.0 μM) | 25 to 100% | +++ (activity was measured to be less than 1.0 μM) | 25 to 100% | +++ (activity was measured to be less than 1.0 μM) | – | – | –
5 | COc1ccc(Cl)cc1C1(O)CCN(C2CCOCC2)CC1 [Compound 304] | < 25% | + (activity was measured to be greater than 5.0 μM) | < 25% | + (activity was measured to be greater than 5.0 μM) | 25 to 100% | + (activity was measured to be greater than 5.0 μM) | – | – | –
6 | COc1ccc(NC(C)=O)cc1C1CCN(CC2C[C@H]3CC[C@H]2C3)CC1 (stereo partly drawn) [Compound 166] | < 25% | + (activity was measured to be greater than 5.0 μM) | < 25% | + (activity was measured to be greater than 5.0 μM) | < 25% | + (activity was measured to be greater than 5.0 μM) | – | – | –
7 | COc1ccc(Cl)cc1C1(O)CCN(C2CC3CCC2C3)CC1 (stereo not drawn) [Compound 63] | < 25% | + (activity was measured to be greater than 5.0 μM) | < 25% | + (activity was measured to be greater than 5.0 μM) | 25 to 100% | + (activity was measured to be greater than 5.0 μM) | – | – | –
8 | CCCC1CCC(N2CCC(c3cc(F)ccc3OC)CC2)CC1 (stereo not drawn) [Compound 125] | 25 to 100% | +++ (activity was measured to be less than 1.0 μM) | 25 to 100% | ++ (activity was measured to be from 1.0 μM to 5.0 μM) | 25 to 100% | +++ (activity was measured to be less than 1.0 μM) | – | – | –
9 | COc1ccccc1C1(C#N)CCN(C[C@@H]2C[C@H]3C=C[C@H]2C3)CC1 [Compound 359] | 25 to 100% | ++ (activity was measured to be from 1.0 μM to 5.0 μM) | 25 to 100% | ++ (activity was measured to be from 1.0 μM to 5.0 μM) | 25 to 100% | +++ (activity was measured to be less than 1.0 μM) | – | – | –
10 | CCOC(=O)N1C2CCC1CC(N1CCC(C#N)(c3ccccc3OC)CC1)C2 (stereo not drawn) [Compound 131] | 25 to 100% | +++ (activity was measured to be less than 1.0 μM) | < 25% | + (activity was measured to be greater than 5.0 μM) | 25 to 100% | +++ (activity was measured to be less than 1.0 μM) | – | – | –
11 | COc1ccccc1C1CCN(CC2CC3CCC(C3)C2)CC1 (stereo not drawn) [Compound 28] | < 25% | + (activity was measured to be greater than 5.0 μM) | < 25% | + (activity was measured to be greater than 5.0 μM) | < 25% | + (activity was measured to be greater than 5.0 μM) | – | – | –
